Assay results as given in patent US20120070392A1, “COMPOSITION FOR INHIBITING ERYTHEMA CAUSED BY ULTRAVIOLET RADIATION CONTAINING A DIPEPTIDE AS ACTIVE INGREDIENT” (priority 2009, published 2012).
Read-outs that look alike come from different tables or passages of the source.

Test system: PGE2 production
Assay: Inhibition of UVB-induced PGE2 production in cultured human keratinocytes (PGE2 assay kit, calibrated with MTT absorbance)
Type: cell-based
Description: Human keratinocytes were seeded at a density of 1×10^5 cells/well to 6-well plates containing 2 mL of KGM(keratinocyte growth medium, Clonetics, San Diego, Calif., USA) per well and cultured overnight. Then, the medium was replaced with KBM(keratinocyte basal medium) supplemented with 0.1% BSA(bovine serum albumin) and the cells were cultured for an additional 24 hours. Subsequently, the cells were pre-treated for an additional 24 hours with 2 mL of the same medium containing 10 μg/ml of each of the dipeptides listed in Table 1. […] The pre-treated medium was transferred to new 24 well plates and 1 mL of DPBS(Dulbecco's phosphate buffered saline) was added to the cells in each well. During UV irradiation, the transferred medium was stored in a cell incubator. […] At this time, the control was covered with aluminum foil. After the removal of DPBS, the transferred medium was returned to each well. The cells were further cultured for 24 hours, after which 1 mL of the medium was transferred to microcentrifuge tubes. […] The supernatants were then removed and the formazan crystals were solubilized in 1 ml of DMSO(dimethylsulfoxide). One hundred μL of the solution was transferred to each well of 96-well plates and an optical density was determined at 540 nm using an ELISA(enzyme-linked immunosorbent assay) reader. […] The concentration of PGE2 was determined using a PGE2 Assay Kit(KGE004, R&D Systems, Inc., Minneapolis, Minn., USA) according to the manufacturer's instruction. […] After removal of the reaction, the wells were washed five times with 400 μL of wash buffer. To each well was added 200 μL of a substrate solution, followed by incubation for 20 30 min. The reaction was terminated with 50 μL of a stop solution per well before determining absorbance at 450 nm on an ELISA reader. The PGE2 concentration of each sample was calculated from the standard graph and calibrated with the absorbance obtained in the MTT assay to determine their inhibitory activity against PGE2 production.

[1] = 10 μg/ml dipeptide, 24 h pre-treatment, human keratinocytes, UVB 100 mJ/cm^2, medium assayed 24 h after irradiation, 0% or lower expressed as zero, 10% or more regarded as effective
[2] = 10 μg/ml dipeptide, 24 h pre-treatment, human keratinocytes, UVB 100 mJ/cm^2, medium assayed 24 h after irradiation, […], 10% or more regarded as effective

Substance	% Inhibition against PGE2 Production	further results
tyrosine-aspartic acid [YD]	88.0%	
tyrosine-glutamic acid [YE]	74.2%	
tyrosine-glutamine [YQ]	13.5%	
tyrosine-isoleucine [YI]	44.3%	
tyrosine-leucine [YL]	24.7%	
tyrosine-lysine [YK]	89.9%	
tyrosine-methionine [YM]	89.6%	
tyrosine-phenylalanine [YF]	12.7%	
tyrosine-threonine [YT]	91.5%	
tyrosine-tyrosine [YY]	83.5%	
valine-alanine		% Inhibition against PGE2 Production [1]: 64.7%
valine-arginine [VR]		% Inhibition against PGE2 Production [2]: 52.5%
valine-asparagine [VN]	31.3%	
valine-aspartic acid [VD]		% Inhibition against PGE2 Production [2]: 45.3%
valine-cysteine [VC]	43.3%	
valine-glutamic acid [VE]		% Inhibition against PGE2 Production [2]: 24.8%
valine-glutamine [VQ]		% Inhibition against PGE2 Production [2]: 71.2%
valine-histidine [VH]	47.6%	
valine-isoleucine [VI]		% Inhibition against PGE2 Production [2]: 51.7%
valine-leucine [VL]		% Inhibition against PGE2 Production [2]: 47.0%
valine-lysine [VK]	42.0%	
valine-phenylalanine [VF]		% Inhibition against PGE2 Production [2]: 12.2%
valine-praline [VP]		% Inhibition against PGE2 Production [1]: 50.5%
valine-tyrosine [VY]	83.2%	
valine-valine [VV]	89.9%	
